Here are results for one compound from paper PMC10687169, “Insights into the recognition mechanism in the UBR box of UBR4 for its specific substrates” (Communications Biology, 2023).

The target of this assay is T1, UBR4^UBR (UBR box of Human UBR4) (Homo sapiens, UniProt Q5T4S7).
T1 construct: UBR box residues 1660-1729 (Methods; Results b12 prints 1669-1729); N-terminal 10His-MBP tag kept for ITC, cut with TEV for crystals; E. coli BL21(DE3) RIL; three zinc ions; crystal 8J9R from YIFS-UBR4 (YIFS fused at N-terminus, LC3B tag removed by ATG4B)
Briefly: ITC. Type of assay: binding. The settings on record: pH 7.5, 200 mM NaCl, 25 °C; 0.225 mM protein, 4.5 mM peptide; 10His-MBP-tagged protein.

Each structure is given as a SMILES string. Where a SMILES comes first, the peptide text is derived from it.

T1 sequence (Q5T4S7 1660-1729): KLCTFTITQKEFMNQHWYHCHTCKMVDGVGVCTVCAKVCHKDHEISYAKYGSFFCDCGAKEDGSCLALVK

Compound `CC[C@H](C)[C@H](NC(=O)[C@@H](N)CCCNC(=N)N)C(=O)N[C@@H](Cc1ccccc1)C(=O)N[C@@H](CO)C(=O)O` [RIFS] (H-RIFS-OH) returned a Kd of 626 ± 29 µM.
